The record followed here is patent US5387709A, “Substituted sulfonamides, process of preparation and medicines containing same” (Lipha Lyonnaise Industrielle Pharmaceutique, priority 1990, dated 1995).

Data set [1] in a line: Lethal dose 50 on the rat by intravenous injection. To be noted: in vivo. As to the method:
The compounds of this invention are characterized by their absence of toxicity. By way of illustration, for the compound described in example 20, the lethal dose 50 determined on the rat, by intravenous injection is higher than 150 mg/kg.

The subject of a further data set is rat aorta. The experiment in a line: Inhibition of the U46619 induced rat aorta vasoconstriction. The note with it: contraction by U46619 (142 nM), rat thoracic aorta, 37° C., read-out: VASOCONSTRICTION RAT AORTA IC 50. The format is cell-based. The gist of the method:
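Spiral strips of thoracic aorta from ~300 g male rats in oxygenated Krebs-Henseleit at 37° C., isotonic recording. Contraction induced by U46619 142 nM; compound added 10 mn after agonist and inhibition read after 15 mn. IC50 from at least 3 aortas.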

Another data set deals with platelets of guinea-pig. The experiment in a line: Inhibition of the platelet aggregation induced by U46619 (BORN test), guinea-pig platelets. The format is cell-based. The note with it: read-out: PLATELET AGGREGATION GUINEA-PIG IC 50. In outline:
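Guinea-pig platelet aggregation at threshold level triggered by U46619, the stable TXA2 analogue. IC50 taken as the concentration inhibiting this aggregation by 50%.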

Like-named read-outs stand apart in the source and are kept apart here.

Take `O=C(O)Cc1ccc(CC2(CNS(=O)(=O)c3ccc(Cl)cc3)CCCC2)cc1` [Example 20, Sodium 4-[[1-[[[(4-chlorophenyl)sulfonyl]amino]methyl]cyclopentyl]methyl]benzeneacetate]: the 50% lethal dose (LD50) (commonly the dose at which mortality reaches 50%) in data set [1] was > 150 mg/kg. The IC50 in the data set on rat aorta amounted to 70 nM; in the data set on platelets of guinea-pig, 280 nM.

In the case of `CN(C)c1cccc2c(S(=O)(=O)NCC3(Cc4ccc(CC(=O)O)cc4)CCCC3)cccc12` [Example 104, 4-[[1-[[[[5-(Dimethylamino)naphthalen-1-yl]sulfonyl]amino]methyl]cyclopentyl]methyl]benzeneacetic acid], the IC50 in the data set on rat aorta (Rattus norvegicus) is > 1000 nM; in the data set with platelets of guinea-pig (Cavia porcellus, Platelet), > 5000 nM.

Regarding `O=C(O)Cc1ccc(CC2(CNS(=O)(=O)c3ccc(Cl)cc3F)CCCC2)cc1` [Example 105, 4-[[1-[[[(4-Chloro-2-fluorophenyl)sulfonyl]amino]methyl]cyclopentyl]methyl]benzeneacetic acid], the IC50 is 110 nM in the data set with rat aorta (Rattus norvegicus) and 570 nM with platelets of guinea-pig (Cavia porcellus, Platelet).

As to “Complex of sodium 4-[[1-[[[(4-chlorophenyl)sulfonyl]amino]methyl]cyclopentyl]methyl]benzeneacetate and β-cyclodextrine (1:1) [Example 23]”, the values for the IC50 with rat aorta and in the data set on platelets of guinea-pig were 40 nM and 480 nM, respectively.

“Complex of sodium trans-4-[[2-[[(4-chlorophenyl)sulfonyl]amino]cyclopentyl]methyl]benzeneacetate and β-cyclodextrine (1:1) [Example 22]”: the figures for the IC50 in the data set with rat aorta and in the data set with platelets of guinea-pig were 150 nM and 710 nM, respectively.
